Consider 2 compounds from publication PMC6272134, “Bioavailability Enhancement of Paclitaxel via a Novel Oral Drug Delivery System: Paclitaxel-Loaded Glycyrrhizic Acid Micelles” (Molecules, 2015).

In one data set the test system is cell membranes. Also noted: method as in PMID 24870200. To be noted: cited from earlier work.
On the set-up of data set [1]: method as in PMID 19929808. To be noted: cited from earlier work.
The next data set has as its system CYP2E1. More on the design: method as in PMID 12584850. The following applies: rat liver microsomes; cited from earlier work. In general terms: Liver microsomes are a subcellular fraction often used to study metabolism.
A further data set relates to CYP1A1. Also noted: method as in PMID 12584850. To be noted: rat liver microsomes; cited from earlier work.
A further data set relates to P-gp. Also noted: method as in PMID 16904803. The following applies: in vitro study; cited from earlier work.
For the next data set, the system named is CYP3A. More on the design: method as in PMID 12584850. The following applies: rat liver microsomes; cited from earlier work.
Details of data set [2]: method as in PMID 7939764. To be noted: cited from earlier work.
On the set-up of data set [3]: method as in PMID 11879753. The following applies: cited from earlier work.
Data set [4] can be described thus: Phase-solubility test of PTX in GA / ethanol-water solutions. Type of data set: physicochemical. As to the method:
The phase-solubility test was performed with a previously reported method. An excess quantity of PTX was taken into clean and dry vials containing 1 mL of various concentrations of GA solutions ([…]). […] Ultimately, the samples were filtered through 0.45 μm filters and the concentrations of PTX were detected by high performance liquid chromatography (HPLC; LC-20A, Shimadzu, Japan) (see Section 3.3.6.). All tests were repeated at least three times.

≈ marks a conversion by molar mass, not a printed value. Read-outs that look alike come from different tables or passages of the source. Bounds are passed on as bounds.

As for `CC1(C)[C@@H](O[C@H]2O[C@H](C(=O)O)[C@@H](O)[C@H](O)[C@H]2O[C@@H]2O[C@H](C(=O)O)[C@@H](O)[C@H](O)[C@H]2O)CC[C@]2(C)[C@H]3C(=O)C=C4[C@@H]5C[C@@](C)(C(=O)O)CC[C@]5(C)CC[C@@]4(C)[C@]3(C)CC[C@@H]12` [GA, Glycyrrhizic acid], the “increase of the permeability of cell membranes” value in the data set on cell membranes is “about 60%”. For the same compound, the critical micelle concentration in [1] is listed as 10^−3 M. Moreover, the “inhibitor of CYP2E1” value in the data set with CYP2E1 is on record as “inhibitor”. The “inhibitor of CYP1A1” value with CYP1A1 was “inhibitor”. In addition, in the data set on P-gp, the “inhibition of the function of P-gp” value is listed as “inhibited the function of P-gp”. The “inhibitor of CYP3A” value in the data set with CYP3A is “inhibitor”.

For orientation: aqueous solubility means the concentration that dissolves in the medium under given conditions. What is called solubility is the concentration that dissolves in the medium under given conditions. `CC(=O)O[C@H]1C(=O)[C@@]2(C)[C@H]([C@H](OC(=O)c3ccccc3)[C@]3(O)C[C@H](OC(=O)[C@H](O)[C@@H](NC(=O)c4ccccc4)c4ccccc4)C(C)=C1C3(C)C)[C@]1(OC(C)=O)CO[C@@H]1C[C@@H]2O` [PTX, Paclitaxel]: the oral bioavailability in [2] is given as less than 2%. Moreover, the aqueous solubility in [3] was less than 1 µg/mL. Also, the solubility at 48 h in data set [4] (10 mM GA solution in water, aqueous with cosolvent or surfactant or cyclodextrin, thermodynamic from solid, water, in the presence of 10 mM GA, 25 °C, read-out: solubility of PTX) was 124 µg/mL; in [4] (7.5% ethanol in water with 10 mM GA, 25 °C, aqueous with cosolvent or surfactant or cyclodextrin, thermodynamic from solid, optimal ethanol percentage (7.5%) with GA (10 mM), read-out: PTX solubility) it was 823 ± 14.4 µg/mL (≈ 964 µM); in data set [4] (ethanol-water mixtures without GA, 0%, 5%, 7.5%, 10% and 25% ethanol in water, without GA, read-out: solubility of PTX in different percentages of ethanol) it was not above 30 µg/mL; in data set [4] (water, absence of GA, 25 °C, read-out: solubility of PTX in water), approximately 0.67 µg/mL (≈ 0.785 µM). The solubility increase entry in data set [4] (7.5% ethanol with GA vs solubility of PTX in water) is given as “more than 1,000 fold”.
